{"source": "patent US8765688B2", "about": "“Anti-dandruff compositions containing peptides” (priority 2007, dated 2014)", "assay_type_in_all_cases": "cell-based", "key": {"[1]": {"tested_on": "Malassezia furfur", "assay": "Long-term stability of P18 in shampoo basic formulations (40° C.) tested on M. furfur, CFU", "settings": "stored at 40° C., 0; 12 and 22 days", "method": "Long-term stability of the peptide P18 (H-KWKLFKKIPKFLHLAKKF-NH2; carboxy-terminal end amidated) in shampoo basic formulations was tested.\nThe following shampoo basic formulations were prepared:\nThe components Texapon NSO and Tego Betain L7 were mixed and dissolved. The pH was adjusted to pH 6-7 with NaOH. In the following, 100 mM of aqueous P18 peptide solution were prepared. A corresponding volume of 100 mM P18 peptide solution was added to each formulation in order to obtain peptide P18 final concentrations as indicated in table 15.\nThe formulations were stored at 40° C.\nAfter 0; 12 and 22 days, the effect of the formulations against M. furfur was analyzed.\n(§1) Growth medium: M472-Pityrosporum medium according to DSMZ\n(§2) The components were sterilized at 121° C., 1 bar superatmospheric pressure for 20 minutes.\n2 g/L of olive oil (sterilized by filtration and, after autoclaving, added to the other components) […]\nA 96-well microtiter plate was filled with in each case 100 μl of M472-Pityrosporum medium and inoculated with M. furfur suspension of the overnight culture. The M. furfur suspension was adjusted at the start of the experiment to an optical density, measured at 600 nm, of 0.1. […]\nAfter 24 hours, the colony-forming units (CFU) were determined. For this, 1 μl and 10 μl were plated out from each of the suspensions and, after incubation for 6 days, the colonies were counted."}, "[2]": {"tested_on": "Malassezia furfur", "assay": "Incubation times with P18 from 5 minutes to 1 hour, CFU of M. furfur, compared to Zincpyrithione", "method": "Since growth inhibition of M. furfur by the peptide P18 (P18 peptide sequence H-KWKLFKKIPKFLHLAKKF-NH2; SEQ ID NO: 3) had so far only been analyzed over incubation times of more than one hour, now the effect of the peptide P18 within the first minutes of incubation (5 minutes, 10 minutes and 20 minutes) up to the first hour after adding to the M. furfur overnight culture was tested and compared to the reference substance Zincpyrithione (Sigma Aldrich). For this, the peptide P18 and the reference substance Zincpyrithione were used in concentrations of 100 μM, 200 μM and 500 μM. The experiments were carried out as follows:\nas §1, §2\n2 g/L of olive oil (sterilized by filtration and, after autoclaving, added to the other components)\nSince it was a two-phase medium, the complete medium was treated with sonication in order to enlarge the phase boundary.\nFor agar plates, if appropriate, 150 g/L of agar agar were added to the medium.\nThe growth test was carried out as follows: A shake flask with M472-Pityrosporum medium was inoculated with M. furfur and incubated with shaking overnight at 30° C. and 200 rpm.\nA 96-well microtiter plate was filled with in each case 100 μl of M472-Pityrosporum medium and inoculated with M. furfur suspension of the overnight culture. The M. furfur suspension was adjusted at the start of the experiment to an optical density, measured at 600 nm, of 0.1.\nThe growth of the following batches was compared:\nM. furfur suspension and addition of the peptide P18 with a final concentration of 100 μM, plating out after 5 minutes, 10 minutes, 20 minutes and 60 minutes\nM. furfur suspension and addition of the peptide P18 with a final concentration of 200 μM plating out after 5 minutes, 10 minutes, 20 minutes and 60 minutes\nM. furfur suspension and addition of the peptide P18 with a final concentration of 500 μM plating out after 5 minutes, 10 minutes, 20 minutes and 60 minutes\nM. furfur suspension and addition of Zincpyrithione with a final concentration of 100 μM plating out after 5 minutes, 10 minutes, 20 minutes and 60 minutes\nM. furfur suspension and addition of Zincpyrithione with a final concentration of 200 μM plating out after 5 minutes, 10 minutes, 20 minutes and 60 minutes\nM. furfur suspension and addition of Zincpyrithione with a final concentration of 500 μM plating out after 5 minutes, 10 minutes, 20 minutes and 60 minutes\nThe microtiter plate was incubated with shaking at 30° C.\nAfter the incubation times indicated above, the colony-forming units (CFU) were determined by plating out 50 μl from each of the suspensions and, after incubation for 6 days, counting the colonies. The CFU was determined in order to exclude an influence of the two-phase medium and also the growth form of M. furfur on the optical density. The experiments were independently repeated."}, "[3]": {"tested_on": "Escherichia coli", "assay": "Growth inhibition of Gram-negative bacteria by P18 (optical density at 620 nm)", "settings": "for optical density at 620 nm: E. coli suspension, 25 μM P18 solution, mean of 8 mixtures", "method": "The growth inhibition by P18 was investigated on Gram-positive and Gram-negative bacteria. Shin et al. 1999 (loc.cit.) had already detected an inhibition on the model organisms Escherichia coli and Bacillus subtilis within a period up to 18 hours.\nThe growth medium used for this was LB medium as complex medium for the organisms Escherichia coli, Bacillus subtilis and Brevibacterium epidermidis. The medium comprised 10 g of trypton, 5 g of yeast extract and 10 g of NaCl per liter.\nThe growth test was carried out as follows: A shake flask with medium was inoculated with Escherichia coli, Bacillus subtilis or Brevibacterium epidermidis and incubated with shaking overnight at 30° C. and 200 rpm. A 96-well microtiter plate was filled with in each case 100 μl LB medium and inoculated with E.-coli, B.-subtilis or B. epidermidis suspensions of the overnight culture. The bacteria suspension was adjusted at the start of the experiment to an optical density, measured at 620 nm, of about 0.02. The concentrates of the P18 inhibitor solutions were 1 mM in water.\nThe growth of the following mixtures was compared by measuring the optical density:\nbacteria suspension without the addition of an inhibitor;\nbacteria suspension and addition of an aqueous P18 solution with a final concentration of 25 μM. The aqueous P18 solution had been freshly prepared.\nThe growth was observed over a period of 40 hours by measuring the optical density. […] The growth of Gram-positive bacteria was inhibited initially."}, "[4]": {"tested_on": "Malassezia furfur", "assay": "Kinetics of the effect of P18 on M. furfur in the presence of a shampoo basic formulation, CFU", "settings": "2.3-0.23 g/l, 5 min to 24 hours, 10% (v/v) formulation 31-3", "method": "The effect of the peptide […]; carboxy-terminal end amidated; […] The experiments were carried out as follows: The following shampoo basic formulation was prepared: The components Texapon NSO and Tego Betain L7 were mixed and dissolved. The pH was adjusted to pH 6-7 with NaOH. The effect of P18, ZPT and Climbazole against M. furfur was analyzed as follows: Growth medium: […]-Pityrosporum medium according to DSMZ 40 g/L malt extract 20 g/L ox bile 10 g/L Tween 40 The components were sterilized at 121° C., 1 bar superatmospheric pressure for 20 minutes. 2 g/L of olive oil (sterilized by filtration and, after autoclaving, added to the other components) Since it was a two-phase medium, the complete medium was treated with sonication in order to enlarge the phase boundary. For agar plates, if appropriate, […] of agar agar were added to the medium. The growth test was carried out as follows: […]. furfur and incubated with shaking overnight at 30° C. and 200 rpm. A 96-well microtiter plate was filled with in each case 100 μl of […]. furfur suspension of the overnight culture. […] The peptide P18 was dissolved in water with a concentration of 230 g/l. […] The microtiter plate was incubated with shaking at 30° C."}}, "note": "Ends that are not written are not given here.", "data": [{"substance": "KWKLFKKIPKFLHLAKKF-NH2 [P18, KWKLFKKIPKFLHLAKKF-NH2]", "values": [{"measurement": "long-term stability in shampoo basic formulations (in words)", "setting": "[1]", "value": "stable characteristics"}, {"measurement": "number of living Malassezia furfur cells", "setting": "[2]; after the first 10 minutes of incubation", "value": "considerably reduced as compared to incubation with Zincpyrithione"}, {"measurement": "colony-forming units after the indicated incubation time", "setting": "[2]; final concentration 100 μM, 5 minutes", "value": ">1000"}, {"measurement": "colony-forming units after the indicated incubation time", "setting": "[2]; final concentration 100 μM, 10 minutes", "value": ">1000"}, {"measurement": "colony-forming units after the indicated incubation time", "setting": "[2]; final concentration 100 μM, 20 minutes", "value": 604}, {"measurement": "colony-forming units after the indicated incubation time", "setting": "[2]; final concentration 100 μM, 60 minutes", "value": "149 ± 60"}, {"measurement": "colony-forming units after the indicated incubation time", "setting": "[2]; final concentration 200 μM, 5 minutes", "value": ">1000"}, {"measurement": "colony-forming units after the indicated incubation time", "setting": "[2]; final concentration 200 μM, 10 minutes", "value": ">1000"}, {"measurement": "colony-forming units after the indicated incubation time", "setting": "[2]; final concentration 200 μM, 20 minutes", "value": ">1000"}, {"measurement": "colony-forming units after the indicated incubation time", "setting": "[2]; final concentration 200 μM, 60 minutes", "value": "52 ± 16"}, {"measurement": "colony-forming units after the indicated incubation time", "setting": "[2]; final concentration 500 μM, 5 minutes", "value": ">1000"}, {"measurement": "colony-forming units after the indicated incubation time", "setting": "[2]; final concentration 500 μM, 10 minutes", "value": "398 ± 290"}, {"measurement": "colony-forming units after the indicated incubation time", "setting": "[2]; final concentration 500 μM, 20 minutes", "value": "26 ± 6"}, {"measurement": "colony-forming units after the indicated incubation time", "setting": "[2]; final concentration 500 μM, 60 minutes", "value": "1 ± 1"}, {"measurement": "growth of E. coli (in words)", "setting": "[3]; 25 μM, period of 40 hours", "value": "effectively inhibited"}, {"measurement": "optical density at 620 nm", "setting": "[3]; incubation time 16 h", "value": 0.09}, {"measurement": "optical density at 620 nm", "setting": "[3]; incubation time 24 h", "value": 0.06}, {"measurement": "optical density at 620 nm", "setting": "[3]; incubation time 40 h", "value": 0.07}, {"measurement": "effect on M. furfur in the presence of shampoo basic formulation (in words)", "setting": "[4]", "value": "superior characteristics as compared to Zincpyrithione or Climbazole"}]}]}
